The results in this text go back to US20080255158A1, “Fungicidal Mixtures” (BASF Aktiengesellschaft, priority 2004, published 2008).

This experiment relates to Cochliobolus miyabeanus. The experiment is described as follows: Activity against brown spot of rice caused by Cochliobolus miyabeanus, protective application. It counts as in vivo. The note with it: individual active compound, 16 ppm in the spray liquor, rice leaves, 6 days after inoculation. The procedure: The active compounds, separately or jointly, were prepared as a stock solution comprising 0.25% by weight of active compound in acetone or DMSO. 1% by weight of the emulsifier Uniperol® EL (wetting agent having emulsifying and dispersing action based on ethoxylated alkylphenols) was added to this solution, and the mixture was appropriately diluted with water to the desired concentration.
Use example—Activity against brown spot of rice caused by Cochliobolus miyabeanus, protective application
Leaves of rice seedlings of the cultivar “Tai-Nong 67” which had been grown in pots were sprayed to runoff point with an aqueous suspension having the concentration of active compound stated below. The next day, the plants were inoculated with an aqueous spore suspension of Cochliobolus miyabeanus. The test plants were then placed in climatized chambers at 22-24° C. and 95-99% relative atmospheric humidity for 6 days. The extent of the development of infection on the leaves was then determined visually.
Evaluation is carried out by determining the infected leaf areas in percent. These percentages were converted into efficacies.
The efficacy (E) is calculated as follows using Abbot's formula: […]
The expected efficacies of the mixtures of active compounds are determined using Colby's formula [R. S. Colby, Weeds, 15, 20-22 (1967)] and are compared with the observed efficacies. […]

On to `CC1CCN(c2c(-c3c(F)cc(F)cc3F)c(Cl)nc3ncnn23)CC1` [compound I, 5-chloro-7-(4-methylpiperidin-1-yl)-6-(2,4,6-trifluorophenyl)[1,2,4]tri-azolo[1,5-a]pyrimidine], for which the “Efficacy in % of the untreated control” value was 54%.
